Assay results as given in paper PMC4559964, “Cytotoxicity of selected Cameroonian medicinal plants and Nauclea pobeguinii towards multi-factorial drug-resistant cancer cells” (BMC Complementary and Alternative Medicine, 2015).
Like-named read-outs stand apart in the source and are kept apart here.

Assays:
[1] = tested on: HCT116 (p53−/−) colon cancer cells; experiment: Resazurin reduction assay, cytotoxicity on HCT116 (p53-/-); format: cell-based, human; settings: for IC50: Homo sapiens, read-out: IC50 values of compounds / doxorubicin; for degree of resistance: ratio IC50 HCT116 (p53−/−) / IC50 HCT116 (p53+/+)
Experimental: (§1) The cell lines used in the present work, their origins and their treatments were previously reported. […] Human wild-type HCT116 (p53^+/+) colon cancer cells as well as knockout clones HCT116 (p53^-/-) derived by homologous recombination were a generous gift from Dr. B. […] (Howard Hughes Medical Institute, Baltimore, MD). Human glioblastoma multiforme U87MG cells (non-transduced) and U87MG cell line transduced with an expression vector harboring an epidermal growth factor receptor (EGFR) gene with a genomic deletion of exons 2 through 7 (U87MG.ΔEGFR) were kindly provided by Dr. W. K. Cavenee (Ludwig Institute for Cancer Research, San Diego, CA). MDA-MB-231-BCRP, U87MG.ΔEGFR and HCT116 (p53^-/-) were maintained in DMEM medium containing 10 % FBS (Invitrogen) and 1 % penicillin (100 U/mL)-streptomycin (100 μg/mL) (Invitrogen) and were continuously treated with 800 ng/mL and 400 μg/mL geneticin, respectively. Normal AML12 heptocytes were obtained from the American Type Culture Collection (ATCC, USA). The above medium without geneticin was used to maintain MDA-MB-231, U87MG, HCT116 (p53^+/+) and AML12 cell lines. The cells were passaged twice weekly. All experiments were performed with cells in the logarithmic growth phase. […] Briefly, adherent cells at 1 × 10^4 cells were allowed to attach overnight and were then treated with different concentrations of the studied samples. For suspension cells, aliquots of 2 × 10^4 cells per well were seeded in 96-well-plates in a final volume of 200 μL. […] After 72 h incubation and resazurin (Sigma-Aldrich, Schnelldorf, Germany) staining, fluorescence was measured on an Infinite […]TM plate reader (Tecan, Crailsheim, Germany) using an excitation wavelength of 544 nm and an emission wavelength of 590 nm. Each assay was done at least two times, with six replicates each.

[2] = tested on: U87MG.ΔEGFR cells; experiment: Resazurin reduction assay, cytotoxicity on U87MG.ΔEGFR; format: cell-based, human; settings: for IC50: Homo sapiens, 72 h, read-out: IC50 values of compounds / doxorubicin; for degree of resistance: ratio IC50 U87MG.ΔEGFR / IC50 U87MG
Experimental: (§2) The cell lines used in the present work, their origins and their treatments were previously reported. They include drug-sensitive leukemia CCRF-CEM cells, its multidrug-resistant subline CEM/ADR5000 cells, breast cancer MDA-MB-231-pcDNA3 cells, its resistant subline MDA-MB-231-BCRP clone 23) cells, colon HCT116 (p53^+/+) cancer cells, its knockout clones HCT116 (p53^−/−), glioblastoma U87MG cells, its resistant subline U87MG.ΔEGFR cells and normal AML12 hepatocytes. […] Breast cancer cells, transduced with control vector (MDA-MB-231-pcDNA3) or with cDNA for the breast cancer resistance protein BCRP (MDA-MB-231-BCRP clone 23), were maintained under standard conditions as described above for CCRF-CEM cells. Human wild-type HCT116 (p53^+/+) colon cancer cells as well as knockout clones HCT116 (p53^−/−) derived by homologous recombination were a generous gift from Dr. B. Vogelstein and H. Hermeking (Howard Hughes Medical Institute, Baltimore, MD). Human glioblastoma multiforme U87MG cells (non-transduced) and U87MG cell line transduced with an expression vector harboring an epidermal growth factor receptor (EGFR) gene with a genomic deletion of exons 2 through 7 (U87MG.ΔEGFR) were kindly provided by Dr. W. K. Cavenee (Ludwig Institute for Cancer Research, San Diego, CA). MDA-MB-231-BCRP, U87MG.ΔEGFR and HCT116 (p53^−/−) were maintained in DMEM medium containing 10 % FBS (Invitrogen) and 1 % penicillin (100 U/mL)-streptomycin (100 μg/mL) (Invitrogen) and were continuously treated with 800 ng/mL and 400 μg/mL geneticin, respectively. Normal AML12 heptocytes were obtained from the American Type Culture Collection (ATCC, USA). The above medium without geneticin was used to maintain MDA-MB-231, U87MG, HCT116 (p53^+/+) and AML12 cell lines. The cells were passaged twice weekly. All experiments were performed with cells in the logarithmic growth phase.
(§3) The cytotoxicity of the tested samples was performed by resazurin reduction assay as we previously described. Briefly, adherent cells at 1 × 10^4 cells were allowed to attach overnight and were then treated with different concentrations of the studied samples. For suspension cells, aliquots of 2 × 10^4 cells per well were seeded in 96-well-plates in a final volume of 200 μL. […] After 72 h incubation and resazurin (Sigma-Aldrich, Schnelldorf, Germany) staining, fluorescence was measured on an Infinite M2000 Pro™ plate reader (Tecan, Crailsheim, Germany) using an excitation wavelength of 544 nm and an emission wavelength of 590 nm. Each assay was done at least two times, with six replicates each. IC50 values represent the sample concentration required to inhibit 50 % of cell proliferation and were calculated from a calibration curve by linear regression using Microsoft Excel.

[3] = tested on: multidrug-resistant leukemia CEM/ADR5000 cells; experiment: Resazurin reduction assay, cytotoxicity on CEM/ADR5000; format: cell-based; settings: for IC50: Homo sapiens, read-out: IC50 values of compounds / doxorubicin; for degree of resistance: ratio IC50 CEM/ADR5000 / IC50 CCRF-CEM
Experimental: as §2, §3

[4] = tested on: normal AML12 hepatocytes; experiment: Resazurin reduction assay, cytotoxicity on normal AML12 hepatocytes; format: cell-based; settings: Mus musculus, read-out: IC50 values of compounds / doxorubicin
Experimental: as §2, §3

[5] = tested on: eight tested cancer cell lines; experiment: Resazurin reduction assay, summary over the panel of tested cell lines; format: cell-based
Experimental: as §2, §3

[6] = tested on: drug-sensitive leukemia CCRF-CEM cells; experiment: Resazurin reduction assay, cytotoxicity on CCRF-CEM; format: cell-based; settings: Homo sapiens, 72 h, read-out: IC50 values of compounds / doxorubicin
Experimental: as §2, §3

[7] = tested on: glioblastoma multiforme U87MG cells; experiment: Resazurin reduction assay, cytotoxicity on U87MG; format: cell-based; settings: Homo sapiens, U-87 MG, 72 h, read-out: IC50 values of compounds / doxorubicin
Experimental: as §2, §3

[8] = tested on: MDA-MB-231-BCRP clone 23 cells; experiment: Resazurin reduction assay, cytotoxicity on MDA-MB231/BCRP; format: cell-based; settings: for IC50: MDA-MB-231/BCRP, 72 h, mean ± SD; for degree of resistance: ratio IC50 MDA-MB231/BCRP / IC50 MDA-MB231
Experimental: as §1

[9] = tested on: breast cancer MDA-MB-231-pcDNA3 cells; experiment: Resazurin reduction assay, cytotoxicity on MDA-MB231; format: cell-based; settings: read-out: IC50 values of compounds / doxorubicin
Experimental: as §2, §3

[10] = tested on: HCT116 (p53+/+) colon cancer cells; experiment: Resazurin reduction assay, cytotoxicity on HCT116 (p53+/+); format: cell-based; settings: Homo sapiens, read-out: IC50 values of compounds / doxorubicin
Experimental: as §2, §3

[11] = tested on: leukemia CCRF-CEM cells; experiment: Preliminary cytotoxicity study at a single concentration on CCRF-CEM; format: cell-based; settings: doxorubicin 10 μM, positive control
Experimental: Briefly, adherent cells at 1 × 10^4 cells were allowed to attach overnight and were then treated with different concentrations of the studied samples. For suspension cells, aliquots of 2 × 10^4 cells per well were seeded in 96-well-plates in a final volume of 200 μL. […] Each assay was done at least two times, with six replicates each.

[12] = HCT-116, HCT116 (p53−/−), 72 h, mean ± SD
[13] = all eight tested cancer cell lines, read-out: IC50 over all tested cell lines
[14] = MDA-MB231/BCRP, read-out: IC50 values of compounds / doxorubicin
[15] = Homo sapiens, MDA-MB-231, 72 h, MDA-MB231, 72 h, mean ± SD
[16] = HCT-116, HCT116 (p53+/+), 72 h, mean ± SD
[17] = read-out: IC50 values of compounds / doxorubicin, MDA-MB231/BCRP

| SMILES | IC50 [1, 12] [µM] | IC50 ([2]; U87MG.ΔEGFR, mean ± SD) [µM] | IC50 ([3]; CEM/ADR5000, 72 h, mean ± SD) [µM] | IC50 ([4]; AML12 normal hepatocytes, 72 h) [µM] | IC50 [5, 13] [µM] | IC50 ([6]; mean ± SD) [µM] | IC50 ([7]; U87MG, mean ± SD) [µM] | IC50 [8, 14] [µM] | IC50 [9, 15] [µM] | IC50 [10, 16] [µM] | degree of resistance [1] | degree of resistance [2] | degree of resistance [3] | degree of resistance [8] | also measured |
| --- | --- | --- | --- | --- | --- | --- | --- | --- | --- | --- | --- | --- | --- | --- | --- |
| CC(=O)O[C@H]1CC[C@]2(C)[C@H]3C(=O)C=C4[C@@H]5[C@@H](C)[C@H](C)CC[C@]5(C)CC[C@@]4(C)[C@]3(C)CC[C@H]2C1(C)C [Compound 1, 3-acetoxy-11-oxo-urs-12-ene] | > 82.9 | > 82.9 | > 82.9 | > 82.9 | > 82.9 | > 82.9 | > 82.9 | > 82.9 | > 82.9 | > 82.9 |  |  |  |  |  |
| O=C(O)/C=C/c1ccc(O)cc1 [Compound 2, p-coumaric acid] | > 244 | > 244 | > 244 | > 244 | > 244 | > 244 | > 244 |  | > 244 | > 244 |  |  |  |  | IC50 [8, 17]: > 244 µM |
| COC(=O)CC(O)(CC(=O)OC)C(=O)OC [Compound 3, citric acid trimethyl ester] | > 171 | > 171 | > 171 | > 171 | > 171 | > 171 | > 171 | > 171 | > 171 | > 171 |  |  |  |  |  |
| Oc1ccc(/C=C/c2cc(O)cc(O)c2)cc1 [Compound 4, resveratrol] | > 175 | 28.4 ± 2.06 | 57.4 ± 3.67 | > 175 |  | 28.2 ± 1.32 | 76.6 ± 4.92 |  | < 23 | 73.7 ± 5.67 | > 2.38 | 0.37 | 2.04 |  | IC50 ([5]; seven out of eight cell lines, read-out: IC50): < 175 µM; IC50 ([9]; MDA-MB231, 72 h, mean ± SD): 19.9 ± 1.45 µM |
| OC[C@H]1O[C@@H](Oc2cc(O)cc(/C=C/c3ccc(O)cc3)c2)[C@H](O)[C@@H](O)[C@@H]1O [Compound 5, resveratrol β-D-glucopyranoside] | 47 ± 4.94 | 47.6 ± 3.29 | 39.9 ± 2.91 | > 103 | < 100 | 25.1 ± 2.48 | 55.6 ± 3.73 |  | 97.6 ± 7.6 | 63.8 ± 4.61 | 0.74 | 0.86 | 1.59 | 0.98 | IC50 [8, 17]: 95.6 ± 8.17 µM |
| C=C[C@H]1[C@H](O[C@@H]2O[C@H](CO)[C@@H](O)[C@H](O)[C@H]2O)OC=C2C(=O)N3CCc4c([nH]c5ccccc45)[C@@H]3C[C@H]21 [Compound 6, strictosamide] |  |  |  |  |  |  |  | 78.3 ± 6.22 |  |  |  |  | > 1.04 | < 0.97 | IC50 ([1]; HCT-116, 72 h): > 80.3 µM; IC50 [2]: > 80.3 µM; IC50 ([3]; ADR5000, 72 h): > 80.3 µM; IC50 ([4]; AML12, 72 h): > 80.3 µM; IC50 ([5]; read-out: IC50): < 80.3 µM; IC50 [6]: 77.1 ± 5.87 µM; IC50 [7]: > 80.3 µM; IC50 ([9]; Homo sapiens, MDA-MB-231, 72 h): > 80.3 µM; IC50 ([10]; HCT-116, 72 h): > 80.3 µM |
| COc1cccc2c1C(=O)c1c(O)c3c(c(O)c1C2=O)C[C@@](O)(C(=O)CO)C[C@@H]3O[C@H]1C[C@H](N)[C@H](O)[C@H](C)O1 [doxorubicin, Doxorubicin, reference compound] |  | 6.11 ± 0.57 |  | > 73.6 |  | 0.2 ± 0.06 | 1.06 ± 0.15 |  |  |  | 2.88 | 5.76 | 975.60 | 7.12 | IC50 ([1]; HCT-116, 72 h): 4.06 ± 0.07 µM; Growth percentage of CCRF-CEM leukemia cells [11]: 13.6%; IC50 ([9]; Homo sapiens, MDA-MB-231, MDA-MB231, 72 h, mean ± SD): 1.1 ± 0.28 µM; IC50 ([10]; HCT-116, 72 h): 1.41 ± 0.29 µM |
